In the supplement of paper PMC10307832:

Experiments:
Assay in all cases: relative viability (nuclei count vs DMSO), 5 days (fraction); higher = more cells survive
[1] = compound: CCOC1=CC=CC=C1N=NC2=C(NN(C2=O)C3=NC(=CS3)C4=CC=CC=C4)C [BAM7] + Cc1nc(NC(=O)N2CCC[C@H]2C(N)=O)sc1-c1ccnc(C(C)(C)C(F)(F)F)c1 [Alpelisib] (partner 2 µM)
In short: (§1)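 For relative viability, nuclei counts in treated wells were divided by those in vehicle wells. Lung cancer cell lines had been pin-tool dosed in 1536-well plates the day after seeding and cultured for 5 days, then fixed and stained in one step (final 0.05% Triton X-100, 1% formaldehyde, 1 ug/ml Hoechst) and imaged at 4×. Doses were one drug alone or a fixed anchor-drug dose plus five library-drug doses (not always all listed) in √10 steps, and values are duplicate-plate medians.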

[2] = compound: CCn1c(-c2nonc2N)nc2c(C#CC(C)(C)O)ncc(OC[C@H]3CCCNC3)c21 + CC(=O)c1c(C)c2cnc(Nc3ccc(N4CCNCC4)cn3)nc2n(C2CCCC2)c1=O [Palbociclib] (partner 0.5 µM)
In short: as §1

[3] = compound: CCn1c(-c2nonc2N)nc2c(C#CC(C)(C)O)ncc(OC[C@H]3CCCNC3)c21 + CC1(C)CCC(c2ccc(Cl)cc2)=C(CN2CCN(c3ccc(C(=O)NS(=O)(=O)c4ccc(N[C@H](CCN5CCOCC5)CSc5ccccc5)c(S(=O)(=O)C(F)(F)F)c4)cc3)CC2)C1 [Navitoclax] (partner 0.5 µM)
In short: as §1

[4] = compound: CCn1c(-c2nonc2N)nc2c(C#CC(C)(C)O)ncc(OC[C@H]3CCCNC3)c21 + C[C@]1(O)C[C@@H](c2nc(-c3ccc4ccc(-c5ccccc5)nc4c3)c3c(N)nccn32)C1 [Linsitinib] (partner 1 µM)
In short: as §1

For UMC-11, the relative viability ([1]; first compound 0.5 µM) was 1.11, the relative viability ([1]; first compound 5 µM) was 1.12 and the relative viability ([1]; first compound 15.81 µM) was 0.992. For the same cell line, the relative viability ([1]; first compound 50 µM) was 0.989, the relative viability ([2]; first compound 0.01 µM) was 0.292 and the relative viability ([2]; first compound 0.03162 µM) was 0.291. It also gave a relative viability ([2]; first compound 0.1 µM) of 0.305, a relative viability ([2]; first compound 0.3162 µM) of 0.329 and a relative viability ([2]; first compound 1 µM) of 0.339. The relative viability ([3]; first compound 0.01 µM) was 0.323, the relative viability ([3]; first compound 0.03162 µM) was 0.288 and the relative viability ([3]; first compound 0.1 µM) was 0.323. It also gave a relative viability ([3]; first compound 0.3162 µM) of 0.29, a relative viability ([3]; first compound 1 µM) of 0.3 and a relative viability ([4]; first compound 0.01 µM) of 0.991. The relative viability ([4]; first compound 0.03162 µM) was 1.05, the relative viability ([4]; first compound 0.1 µM) was 0.974 and the relative viability ([4]; first compound 0.3162 µM) was 0.976. It also gave a relative viability ([4]; first compound 1 µM) of 1.04.
